The source of these data is PubChem BioAssay AID248 (DTP/NCI, 2004).

Molecules are shown by their SMILES. Several values for one entry are separate records, joined by “and”; a condition that tells them apart may be missing. Identical values can stand only once. Inconclusive results and toxic doses are left out.

This experiment has as its system L1210 leukemia ip in BDF1 mice, survival T/C. As to the kind of experiment: NCI In Vivo Anticancer Drug Screen. Data for tumor model L1210 Leukemia (intraperitoneal) in B6D2F1 (BDF1) mice. The following applies: endpoint: mean survival time, higher = longer survival. In short, it runs like this: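 Transplanted-tumor mice were given test agent; controls received vehicle only. Survival readings from the two groups were divided (treated over control).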

[1] abbreviates: dose: 100.0 mg/kg/injection, schedule: Q01DX001 (ip), vehicle: carboxymethylcellulose (CMC).
The mark [2] stands for this setting: dose: 200.0 mg/kg/injection, schedule: Q01DX001 (ip), vehicle: carboxymethylcellulose (CMC).
[3] abbreviates: dose: 400.0 mg/kg/injection, schedule: Q01DX001 (ip), vehicle: carboxymethylcellulose (CMC).
The mark [4] stands for this setting: dose: 100.0 mg/kg/injection, schedule: Q04DX003 (ip), vehicle: saline.
The mark [5] stands for this setting: dose: 200.0 mg/kg/injection, schedule: Q04DX003 (ip), vehicle: saline.
The mark [6] stands for this setting: dose: 100.0 mg/kg/injection, schedule: Q01DX001 (ip), vehicle: saline.
The mark [7] stands for this setting: dose: 200.0 mg/kg/injection, schedule: Q01DX001 (ip), vehicle: saline.
[8] abbreviates: dose: 100.0 mg/kg/injection, schedule: Q01DX009 (ip), vehicle: Klucel (hydroxypropylcellulose) (HPC).
[9] abbreviates: dose: 100.0 mg/kg/injection, schedule: Q04DX003 (ip), vehicle: saline with Tween-80.
Setting [10] is: dose: 200.0 mg/kg/injection, schedule: Q04DX003 (ip), vehicle: saline with Tween-80.
Where [11] appears, read: dose: 400.0 mg/kg/injection, schedule: Q04DX003 (ip), vehicle: saline with Tween-80.

On to `CC(=O)OC1c2cc(Cl)ccc2-c2c(Cl)cc(Cl)cc21` (stereo unspecified), for which the T/C runs as follows: under setting [1], 95 % of control; under setting [2], 95 % of control; under setting [3], 95 % of control.
Regarding `Cc1ccc(S(=O)(=O)N(CC2OCC3OC(C)(C)OC23)N=O)cc1` (stereo unspecified), the T/C runs as follows: (dose: 75.0 mg/kg/injection, schedule: Q01DX001 (ip), vehicle: saline) 100 % of control; (dose: 150.0 mg/kg/injection, schedule: Q01DX001 (ip), vehicle: saline) 98 % of control; (dose: 300.0 mg/kg/injection, schedule: Q01DX001 (ip), vehicle: saline) 98 % of control.
As for `N/C=N/O`, the T/C runs as follows: (dose: 12.5 mg/kg/injection, schedule: Q01DX009 (ip), vehicle: saline) 105 % of control; (dose: 25.0 mg/kg/injection, schedule: Q01DX009 (ip), vehicle: saline) 105 % of control; (dose: 50.0 mg/kg/injection, schedule: Q01DX009 (ip), vehicle: saline) 111 % of control; (dose: 100.0 mg/kg/injection, schedule: Q01DX009 (ip), vehicle: saline) 111 % of control; under setting [4], 101 % of control; (dose: 200.0 mg/kg/injection, schedule: Q01DX009 (ip), vehicle: saline) 121 % of control. Also, the T/C reads like this: under setting [5], 111 % of control; (dose: 400.0 mg/kg/injection, schedule: Q01DX009 (ip), vehicle: saline) 158 % of control; (dose: 400.0 mg/kg/injection, schedule: Q04DX003 (ip), vehicle: saline) 97 % of control.
Consider `CC[NH-].CC[NH-].[Cl][Pt+2][Cl]`, for which the T/C was 106 % of control (dose: 0.75 mg/kg/injection, schedule: Q01DX009 (ip), vehicle: other); 101 % of control (dose: 1.5 mg/kg/injection, schedule: Q01DX001 (ip), vehicle: other); 118 % of control (dose: 1.5 mg/kg/injection, schedule: Q01DX009 (ip), vehicle: other); 108 % of control and 114 % of control (dose: 2.6 mg/kg/injection, schedule: Q01DX009 (ip), vehicle: Klucel (hydroxypropylcellulose) (HPC)); 106 % of control (dose: 3.0 mg/kg/injection, schedule: Q01DX001 (ip), vehicle: other); 124 % of control (dose: 3.0 mg/kg/injection, schedule: Q01DX009 (ip), vehicle: other). In addition, the T/C was 108 % of control and 119 % of control (dose: 4.0 mg/kg/injection, schedule: Q01DX009 (ip), vehicle: Klucel (hydroxypropylcellulose) (HPC)); 107 % of control (dose: 5.0 mg/kg/injection, schedule: Q04DX003 (ip), vehicle: Klucel (hydroxypropylcellulose) (HPC)); 115 % of control and 119 % of control (dose: 6.0 mg/kg/injection, schedule: Q01DX009 (ip), vehicle: Klucel (hydroxypropylcellulose) (HPC)); 110 % of control (dose: 8.0 mg/kg/injection, schedule: Q04DX003 (ip), vehicle: Klucel (hydroxypropylcellulose) (HPC)); 107 % of control (dose: 9.0 mg/kg/injection, schedule: Q01DX009 (ip), vehicle: Klucel (hydroxypropylcellulose) (HPC)); 121 % of control (dose: 12.0 mg/kg/injection, schedule: Q01DX001 (ip), vehicle: other). Moreover, the T/C is 119 % of control (dose: 12.5 mg/kg/injection, schedule: Q01DX009 (ip), vehicle: Klucel (hydroxypropylcellulose) (HPC)); 117 % of control (dose: 18.0 mg/kg/injection, schedule: Q04DX003 (ip), vehicle: Klucel (hydroxypropylcellulose) (HPC)); 90 % of control (dose: 25.0 mg/kg/injection, schedule: Q04DX003 (ip), vehicle: Klucel (hydroxypropylcellulose) (HPC)).
`O=C(O)c1cc([N+](=O)[O-])cs1`: the T/C runs as follows: under setting [6], 98 % of control; under setting [7], 104 % of control.
On to `CCOC(=O)c1cnc(SC)nc1Nc1ccc(Cl)cc1Cl`, for which the T/C by setting is: under setting [8], 103 % of control; (dose: 200.0 mg/kg/injection, schedule: Q01DX009 (ip), vehicle: Klucel (hydroxypropylcellulose) (HPC)) 97 % of control; (dose: 400.0 mg/kg/injection, schedule: Q01DX009 (ip), vehicle: Klucel (hydroxypropylcellulose) (HPC)) 92 % of control.
Consider `O=C(O)CC(C(=O)O)c1ccccc1` (stereo unspecified), for which the T/C runs as follows: under setting [9], 88 % of control; under setting [10], 103 % of control; under setting [11], 106 % of control.
Regarding `CC(C)(CC(=O)NNc1ccccc1)C(=O)O`, the T/C (dose: 50.0 mg/kg/injection, schedule: Q01DX001 (ip), vehicle: saline) is 97 % of control; the T/C under setting [6] is 102 % of control; the T/C under setting [7] is 100 % of control; the T/C (dose: 400.0 mg/kg/injection, schedule: Q01DX001 (ip), vehicle: saline) was 102 % of control.
Regarding `O=C(O)c1cccc(C#Cc2ccccc2)c1`, the T/C reads like this: (dose: 100.0 mg/kg/injection, schedule: Q01DX001 (ip), vehicle: Klucel (hydroxypropylcellulose) (HPC)) 97 % of control; (dose: 200.0 mg/kg/injection, schedule: Q01DX001 (ip), vehicle: Klucel (hydroxypropylcellulose) (HPC)) 103 % of control.
`O=C(O)COc1c(Br)cc(F)cc1Br`: the T/C is 103 % of control (dose: 100.0 mg/kg/injection, schedule: Q04DX002 (ip), vehicle: other); 109 % of control and 90 % of control (dose: 200.0 mg/kg/injection, schedule: Q04DX002 (ip), vehicle: other); 100 % of control and 86 % of control (dose: 400.0 mg/kg/injection, schedule: Q04DX002 (ip), vehicle: other).
In the case of `N[n+]1cccc2ccccc21`, the T/C runs as follows: under setting [6], 93 % of control; under setting [4], 108 % of control; under setting [7], 108 % of control; under setting [5], 110 % of control.
Consider `C[C@]12CC[C@H]3C(=CCc4cc(O)ccc43)[C@@H]1CCC2=O`, for which the T/C (dose: 100.0 mg/kg/injection, schedule: Q01DX001 (sc), vehicle: steriod suspending solution) is 94 % of control; the T/C (dose: 200.0 mg/kg/injection, schedule: Q01DX001 (sc), vehicle: steriod suspending solution) was 100 % of control; the T/C (dose: 400.0 mg/kg/injection, schedule: Q01DX001 (sc), vehicle: steriod suspending solution) was 91 % of control.
Turning to `CCOC(=O)CCCCCCCCC(=O)Nc1ccc([N+](=O)[O-])cc1O`, the T/C is, setting by setting: (dose: 100.0 mg/kg/injection, schedule: Q04DX003 (ip), vehicle: Klucel (hydroxypropylcellulose) (HPC)) 103 % of control; (dose: 200.0 mg/kg/injection, schedule: Q04DX003 (ip), vehicle: Klucel (hydroxypropylcellulose) (HPC)) 100 % of control; (dose: 400.0 mg/kg/injection, schedule: Q04DX003 (ip), vehicle: Klucel (hydroxypropylcellulose) (HPC)) 101 % of control.
For `Cc1ccc(N)c2cccnc12`, the T/C under setting [8] is 93 % of control.
For `CC1(C)C2CCC1(C)C(C(=O)C(F)(F)F)C2=O.CC1(C)C2CCC1(C)C(C(=O)C(F)(F)F)C2=O.CC1(C)C2CCC1(C)C(C(=O)C(F)(F)F)C2=O.[Eu]` (stereo unspecified), the T/C was 105 % of control (dose: 50.0 mg/kg/injection, schedule: Q04DX002 (ip), vehicle: saline with Tween-80); 94 % of control (dose: 100.0 mg/kg/injection, schedule: Q04DX002 (ip), vehicle: saline with Tween-80); 102 % of control (dose: 200.0 mg/kg/injection, schedule: Q04DX002 (ip), vehicle: saline with Tween-80).
Consider `c1ccc(SCc2ncc3cnccn23)cc1`, for which the T/C runs as follows: under setting [9], 97 % of control; under setting [10], 94 % of control; under setting [11], 103 % of control.
With `O=[N+]([O-])c1cc(N(c2ccccc2)c2ccccc2)c(Cl)cc1Cl`, the T/C is 111 % of control under setting [1], 103 % of control under setting [2] and 95 % of control under setting [3].
On to `CCN(CCCCO)CCc1c[nH]c2ccc(OC)cc12`, for which the T/C is 98 % of control (dose: 4.68 mg/kg/injection, schedule: Q01DX009 (ip), vehicle: saline); 106 % of control (dose: 9.37 mg/kg/injection, schedule: Q01DX009 (ip), vehicle: saline); 96 % of control (dose: 18.75 mg/kg/injection, schedule: Q01DX009 (ip), vehicle: saline); 112 % of control (dose: 18.75 mg/kg/injection, schedule: Q04DX003 (ip), vehicle: saline); 104 % of control (dose: 37.5 mg/kg/injection, schedule: Q01DX009 (ip), vehicle: saline); 101 % of control (dose: 37.5 mg/kg/injection, schedule: Q04DX003 (ip), vehicle: saline). Also, the T/C (dose: 75.0 mg/kg/injection, schedule: Q01DX009 (ip), vehicle: saline) was 95 % of control; the T/C (dose: 75.0 mg/kg/injection, schedule: Q04DX003 (ip), vehicle: saline) is 106 % of control; the T/C (dose: 150.0 mg/kg/injection, schedule: Q01DX009 (ip), vehicle: saline) is 109 % of control.
